The data set can be described thus: Accelerated and long-term stability tests of Crystalline Form I. It counts as physicochemical. The settings on record: for Purity: HPLC. How it is done:
X-ray powder diffraction (XRPD) patterns were obtained on a Shimadzu XRD-6000. A CuK source (=1.54056 angstrom) operating minimally at 40 kV and 30 mA scans each sample between 5 and 50 degrees 2-theta. The step size is 0.02 degrees 2-theta and the scan speed is 1 second per step.
Differential scanning calorimetry analysis was carried out on a TA Instrument DSC unit (METTLER DSC 3). Samples were heated in non-hermetic aluminum pans from ambient to 300° C. at 20 K/min with a nitrogen purge of 50 mL/min.
High-performance liquid chromatography (HPLC) was performed using the following instrument and/or conditions.
Example 8. Stability Tests of Crystalline Form I
Crystalline Form I was not changed after storage at 40° C./75% RH for 6 months, or storage at 25° C./60% RH for 6 months.

The mark [1] stands for this setting: 25° C./60% RH (closed), 0 month.
The mark [2] stands for this setting: 25° C./60% RH (closed), 6 months.
[3] abbreviates: 40° C./75% RH (closed), 0 month.
[4] abbreviates: 40° C./75% RH (closed), 6 months.

As to `CCCS(=O)(=O)Nc1cc(F)c(F)c(C(=O)c2ccc3ncc(N4CCOCC4)nc3c2)c1F` [Crystalline Form I, N-(2,4,5-trifluoro-3-(3-morpholinoquinoxaline-6-carbonyl)phenyl)propane-1-sulfonamide], the Appearance entry was “Yellow powder” under setting [1], “Yellow powder” under setting [2], “Yellow powder” under setting [3] and “Yellow powder” under setting [4]. Besides, the DSC under setting [1] was 186.56 °C, the DSC under setting [2] was determined as 186.08 °C, the DSC under setting [3] was 186.56 °C and the DSC under setting [4] stood at 186.54 °C. The XRPD result is listed as “Form I” under setting [1], “Form I” under setting [2], “Form I” under setting [3] and “Form I” under setting [4]. For the same molecule, the Purity reads like this: under setting [1], 99.93%; under setting [2], 99.92%; under setting [3], 99.93%; under setting [4], 99.92%. Further, the “Change of crystalline form after storage” value reads like this: (storage at 25° C./60% RH for 6 months) “not changed”; (storage at 40° C./75% RH for 6 months) “not changed”.
